# Assay results reported in ChEMBL document CHEMBL1201862, “PubChem BioAssay data set” (2004).
#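 In this assay, cells in 96-well plates receive the compound at five concentrations for 48 hours. Endpoints are linearly interpolated between the surrounding concentrations. Here, GI50 denotes the concentration required for 50% inhibition of growth.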 Calls of active or inactive are those of the source. Cut-off read from the data, not from the text of the source: active = GI50 up to about 1.1 µM and inactive = higher.
# Tests used:
# Assay in all cases: NCI anticancer screen, dose series, 48 h
# 786-0 = test system: 786-0
# A498 = test system: A498
# A549 = test system: A549
# ACHN = test system: ACHN
# CAKI-1 = test system: CAKI-1
# CCRF-CEM = test system: CCRF-CEM
# COLO 205 = test system: COLO 205
# DLD-1 = test system: DLD-1
# DMS-114 = test system: DMS-114
# DMS-273 = test system: DMS-273
# EKVX = test system: EKVX
# HCC 2998 = test system: HCC 2998
# HL-60 = test system: HL-60
# HOP-62 = test system: HOP-62
# HOP-92 = test system: HOP-92
# HT-29 = test system: HT-29
# IGROV-1 = test system: IGROV-1
# K562 = test system: K562
# KM-20L2 = test system: KM-20L2
# LOX IMVI = test system: LOX IMVI
# LXFL 529 = test system: LXFL 529
# M14 = test system: M14
# M19-MEL = test system: M19-MEL
# MOLT-4 = test system: MOLT-4
# Malme-3M = test system: Malme-3M
# NCI-H23 = test system: NCI-H23
# NCI-H460 = test system: NCI-H460
# NCI-H522 = test system: NCI-H522
# OVCAR-3 = test system: OVCAR-3
# OVCAR-4 = test system: OVCAR-4
# OVCAR-5 = test system: OVCAR-5
# OVCAR-8 = test system: OVCAR-8
# RPMI-8226 = test system: RPMI-8226
# RXF 393 = test system: RXF 393
# SF-268 = test system: SF-268
# SF-295 = test system: SF-295
# SF-539 = test system: SF-539
# SK-MEL-28 = test system: SK-MEL-28
# SK-MEL-2 = test system: SK-MEL-2
# SK-MEL-5 = test system: SK-MEL-5
# SK-OV-3 = test system: SK-OV-3
# SN12C = test system: SN12C
# SNB-19 = test system: SNB-19
# SNB-75 = test system: SNB-75
# SNB-78 = test system: SNB-78
# SW-620 = test system: SW-620
# TK-10 = test system: TK-10
# U-251 = test system: U-251
# UACC-257 = test system: UACC-257
# UACC-62 = test system: UACC-62
# UO-31 = test system: UO-31
# XF498 = test system: XF498
# HCT-116 = test system: HCT-116
# HCT-15 = test system: HCT-15
# NCI-H226 = test system: NCI-H226
# SR = test system: SR
# KM12 = test system: KM12
structure (smiles),measurement,setting,value
CCC1(Br)C(=O)NC(=O)N(C2CC(O)C(CO)O2)C1N=[N+]=[N-] (centres undefined),GI50,786-0,> 100 µM (inactive)
same,GI50,A498,> 100 µM (inactive)
same,GI50,A549,> 100 µM (inactive)
same,GI50,ACHN,> 100 µM (inactive)
same,GI50,CAKI-1,> 100 µM (inactive)
same,GI50,CCRF-CEM,44 µM (inactive)
same,GI50,COLO 205,> 100 µM (inactive)
same,GI50,DLD-1,> 100 µM (inactive)
same,GI50,DMS-114,72.1 µM (inactive)
same,GI50,DMS-273,> 100 µM (inactive)
same,GI50,EKVX,> 100 µM (inactive)
same,GI50,HCC 2998,> 100 µM (inactive)
same,GI50,HL-60,> 100 µM (inactive)
same,GI50,HOP-62,> 100 µM (inactive)
same,GI50,HOP-92,> 100 µM (inactive)
same,GI50,HT-29,> 100 µM (inactive)
same,GI50,IGROV-1,> 100 µM (inactive)
same,GI50,K562,> 100 µM (inactive)
same,GI50,KM-20L2,> 100 µM (inactive)
same,GI50,LOX IMVI,> 100 µM (inactive)
same,GI50,LXFL 529,> 100 µM (inactive)
same,GI50,M14,> 100 µM (inactive)
same,GI50,M19-MEL,> 100 µM (inactive)
same,GI50,MOLT-4,> 100 µM (inactive)
same,GI50,Malme-3M,> 100 µM (inactive)
same,GI50,NCI-H23,56.8 µM (inactive)
same,GI50,NCI-H460,> 100 µM (inactive)
same,GI50,NCI-H522,94.4 µM (inactive)
same,GI50,OVCAR-3,> 100 µM (inactive)
same,GI50,OVCAR-4,> 100 µM (inactive)
same,GI50,OVCAR-5,> 100 µM (inactive)
same,GI50,OVCAR-8,> 100 µM (inactive)
same,GI50,RPMI-8226,> 100 µM (inactive)
same,GI50,RXF 393,66.7 µM (inactive)
same,GI50,SF-268,> 100 µM (inactive)
same,GI50,SF-295,> 100 µM (inactive)
same,GI50,SF-539,> 100 µM (inactive)
same,GI50,SK-MEL-28,> 100 µM (inactive)
same,GI50,SK-MEL-2,> 100 µM (inactive)
same,GI50,SK-MEL-5,> 100 µM (inactive)
same,GI50,SK-OV-3,> 100 µM (inactive)
same,GI50,SN12C,> 100 µM (inactive)
same,GI50,SNB-19,> 100 µM (inactive)
same,GI50,SNB-75,> 100 µM (inactive)
same,GI50,SNB-78,> 100 µM (inactive)
same,GI50,SW-620,> 100 µM (inactive)
same,GI50,TK-10,> 100 µM (inactive)
same,GI50,U-251,> 100 µM (inactive)
same,GI50,UACC-257,83.6 µM (inactive)
same,GI50,UACC-62,> 100 µM (inactive)
same,GI50,UO-31,> 100 µM (inactive)
same,GI50,XF498,> 100 µM (inactive)
CCOC(=O)C1(Br)S(=O)(=O)OCCOS1(=O)=O,GI50,786-0,> 100 µM (inactive)
same,GI50,A498,> 100 µM (inactive)
same,GI50,A549,> 100 µM (inactive)
same,GI50,ACHN,> 100 µM (inactive)
same,GI50,CCRF-CEM,> 100 µM (inactive)
same,GI50,COLO 205,> 100 µM (inactive)
same,GI50,DLD-1,> 100 µM (inactive)
same,GI50,DMS-114,> 100 µM (inactive)
same,GI50,DMS-273,> 100 µM (inactive)
same,GI50,EKVX,> 100 µM (inactive)
same,GI50,HCC 2998,> 100 µM (inactive)
same,GI50,HCT-116,> 100 µM (inactive)
same,GI50,HCT-15,> 100 µM
same,GI50,HL-60,> 100 µM (inactive)
same,GI50,HOP-62,> 100 µM (inactive)
same,GI50,HOP-92,> 100 µM (inactive)
same,GI50,HT-29,> 100 µM (inactive)
same,GI50,IGROV-1,> 100 µM (inactive)
same,GI50,K562,> 100 µM (inactive)
same,GI50,KM-20L2,> 100 µM (inactive)
same,GI50,LOX IMVI,> 100 µM (inactive)
same,GI50,M14,> 100 µM (inactive)
same,GI50,M19-MEL,> 100 µM (inactive)
same,GI50,MOLT-4,> 100 µM (inactive)
same,GI50,Malme-3M,> 100 µM (inactive)
same,GI50,NCI-H226,> 100 µM (inactive)
same,GI50,NCI-H23,> 100 µM (inactive)
same,GI50,NCI-H460,> 100 µM (inactive)
same,GI50,NCI-H522,> 100 µM (inactive)
same,GI50,OVCAR-3,> 100 µM (inactive)
same,GI50,OVCAR-4,> 100 µM (inactive)
same,GI50,OVCAR-5,> 100 µM (inactive)
same,GI50,OVCAR-8,> 100 µM (inactive)
same,GI50,RPMI-8226,> 100 µM (inactive)
same,GI50,RXF 393,> 100 µM (inactive)
same,GI50,SF-268,> 100 µM (inactive)
same,GI50,SF-295,> 100 µM (inactive)
same,GI50,SF-539,> 100 µM (inactive)
same,GI50,SK-MEL-28,> 100 µM (inactive)
same,GI50,SK-MEL-2,> 100 µM (inactive)
same,GI50,SK-MEL-5,> 100 µM (inactive)
same,GI50,SK-OV-3,> 100 µM (inactive)
same,GI50,SN12C,> 100 µM (inactive)
same,GI50,SNB-19,> 100 µM (inactive)
same,GI50,SNB-75,> 100 µM (inactive)
same,GI50,SNB-78,> 100 µM (inactive)
same,GI50,SR,> 100 µM (inactive)
same,GI50,SW-620,> 100 µM (inactive)
same,GI50,TK-10,> 100 µM (inactive)
same,GI50,U-251,> 100 µM (inactive)
same,GI50,UACC-257,> 100 µM (inactive)
same,GI50,UACC-62,> 100 µM (inactive)
same,GI50,UO-31,> 100 µM (inactive)
same,GI50,XF498,> 100 µM (inactive)
O=C(O)C12CC3CC(CC(F)(C3)C1)C2,GI50,786-0,> 100 µM (inactive)
same,GI50,A498,> 100 µM (inactive)
same,GI50,A549,> 100 µM (inactive)
same,GI50,ACHN,> 100 µM (inactive)
same,GI50,CCRF-CEM,> 100 µM (inactive)
same,GI50,COLO 205,> 100 µM (inactive)
same,GI50,DLD-1,> 100 µM (inactive)
same,GI50,DMS-114,> 100 µM (inactive)
same,GI50,DMS-273,> 100 µM (inactive)
same,GI50,EKVX,> 100 µM (inactive)
same,GI50,HCC 2998,> 100 µM (inactive)
same,GI50,HCT-116,> 100 µM (inactive)
same,GI50,HL-60,> 100 µM (inactive)
same,GI50,HOP-62,> 100 µM (inactive)
same,GI50,HOP-92,> 100 µM (inactive)
same,GI50,HT-29,> 100 µM (inactive)
same,GI50,IGROV-1,> 100 µM (inactive)
same,GI50,K562,> 100 µM (inactive)
same,GI50,KM-20L2,> 100 µM (inactive)
same,GI50,KM12,> 100 µM (inactive)
same,GI50,LOX IMVI,> 100 µM (inactive)
same,GI50,LXFL 529,> 100 µM (inactive)
same,GI50,M14,> 100 µM (inactive)
same,GI50,M19-MEL,> 100 µM (inactive)
same,GI50,MOLT-4,> 100 µM (inactive)
same,GI50,Malme-3M,> 100 µM (inactive)
same,GI50,NCI-H23,> 100 µM (inactive)
same,GI50,NCI-H460,> 100 µM (inactive)
same,GI50,NCI-H522,> 100 µM (inactive)
same,GI50,OVCAR-3,> 100 µM (inactive)
same,GI50,OVCAR-5,> 100 µM (inactive)
same,GI50,OVCAR-8,> 100 µM (inactive)
same,GI50,RPMI-8226,> 100 µM (inactive)
same,GI50,RXF 393,> 100 µM (inactive)
same,GI50,SF-539,> 100 µM (inactive)
same,GI50,SK-MEL-28,> 100 µM (inactive)
same,GI50,SK-MEL-2,> 100 µM (inactive)
same,GI50,SK-MEL-5,> 100 µM (inactive)
same,GI50,SK-OV-3,> 100 µM (inactive)
same,GI50,SNB-75,65.5 µM (inactive)
same,GI50,SNB-78,32.2 µM (inactive)
same,GI50,SW-620,> 100 µM (inactive)
same,GI50,TK-10,> 100 µM (inactive)
same,GI50,U-251,> 100 µM (inactive)
same,GI50,UACC-257,> 100 µM (inactive)
same,GI50,UACC-62,> 100 µM (inactive)
same,GI50,UO-31,> 100 µM (inactive)
same,GI50,XF498,> 100 µM (inactive)
